Source: patent US20240423908A1, “Improved Nasal Administration of Parkinson's Therapeutics” (Cyrano Therapeutics, Inc., priority 2022, published 2024)

Tests used:
Type in all cases: in vivo
Parkinson's disease = assay: Treatment of Parkinson's disease with a nasal spray composition (Examples 4 and 6)
Description: (§1) A subject is admitted to a clinic for tremors and rigid muscles. The subject is diagnosed with Parkinson's disease. The subject is prescribed a rolipram composition in a nasal spray device described herein. The subject administers the nasal spray in an effective dose 2× daily in each naris. The nasal spray is characterized by a spray containing a D50 of about 15 μm to about 24 μm, a D90 of from about 30 μm to about 50 μm, and where less than about 3% of the droplets in the plume of a spray have a size of less than about 10 μm.
as §1, with “bradykinesia” for “tremors”, “impaired balance.” for “rigid muscles.”, “levodopa” for “rolipram”, “4×” for “2×”

Alzheimer's disease = assay: Treatment of Alzheimer's disease with a nasal spray composition (Example 7); conditions: donepezil composition, nasal spray 3× daily in each naris
Description: as §1, with “confusion” for “tremors”, “inability to concentrate.” for “rigid muscles.”, “Alzheimer's” for “Parkinson's”, “donepezil” for “rolipram”, “3×” for “2×”

[1] = system: chemosensory dysfunction associated with Parkinson's disease; assay: Treatment of Parkinson's disease chemosensory dysfunction with intranasal theophylline (Example 9); conditions: adult human male; about 0.4 ml per day of 3.1 mg/ml theophylline liquid composition, nasal spray twice daily in each naris; after 7 days
Method: An adult human subject was treated for chemosensory dysfunction associated with Parkinson's disease. […] The subject was administered about 0.4 ml per day of a liquid composition comprising theophylline at a concentration of 3.1 mg/ml in a nasal spray device described herein. The subject administered the nasal spray twice daily in each naris.

[2] = system: loss of taste associated with Parkinson's disease; assay: Treatment of chemosensory dysfunction in a Parkinson's disease patient (Example 5); conditions: theophylline composition, nasal spray 2× daily in each naris
Description: A subject is admitted to a clinic for loss of taste associated with Parkinson's disease. The subject is diagnosed with chemosensory dysfunction. The subject is prescribed a theophylline composition in a nasal spray device described herein. The subject administers the nasal spray in an effective dose 2× daily in each naris. The nasal spray is characterized by a spray containing a D50 of about 15 μm to about 24 μm, a D90 of from about 30 μm to about 50 μm, and where less than about 3% of the droplets in the plume of a spray have a size of less than about 10 μm.

## N[C@@H](Cc1ccc(O)c(O)c1)C(=O)O [levodopa]
Parkinson's disease; levodopa composition, nasal spray 4× daily in each naris
  bradykinesia and balance: reduced bradykinesia and improved balance

## COc1ccc(C2CNC(=O)C2)cc1OC1CCCC1 (centres unmarked) [rolipram]
Parkinson's disease; rolipram composition, nasal spray 2× daily in each naris
  symptoms of Parkinson's disease: reduced symptoms (e.g., reduced tremors and reduced muscle rigidity)

## COc1cc2c(cc1OC)C(=O)C(CC1CCN(Cc3ccccc3)CC1)C2 (centres unmarked) [donepezil]
Alzheimer's disease
  confusion and concentration: reduced confusion and improved concentration

## Cn1c(=O)c2[nH]cnc2n(C)c1=O [theophylline]
[1]
  ability to taste and smell: regained their ability to taste and smell
[2]
  sense of taste: regains the sense of taste
